In article PMC6792352, “Limited Chemical Structural Diversity Found to Modulate Thyroid Hormone Receptor in the Tox21 Chemical Library” (Environmental Health Perspectives, 2019):
Counter-ions that a name gives are not always drawn.

experiment: in vitro; conditions: rat, gh3-tre-luc cells, AC50 (uM) modified / 1000

Q: Which CC50 at 24 h does the source give for CC(=O)c1ccc2ccc3ccccc3c2c1 [3-Acetylphenanthrene] here?
A: > 90 µM

Q: For ClC1=C(Cl)C1(Cl)Cl [Tetrachlorocyclopropene], which CC50 at 24 h is on record?
A: > 90 µM

Q: Which CC50 at 24 h does the source give for O=C(C(=O)c1ccccc1)c1ccccc1 [1,2-Diphenylethanedione] here?
A: > 90 µM

Q: With COC(=O)c1c(Cl)c(Cl)c(C(=O)OC)c(Cl)c1Cl [Chlorthal-dimethyl] as the compound, how does the CC50 at 24 h read?
A: > 90 µM

Q: For CCC(=O)OCC(=O)[C@@]1(OC(=O)CC)[C@H](C)C[C@H]2[C@H]3[C@H]([C@@H](O)C[C@@]21C)[C@@]1(C)C=CC(=O)C=C1C[C@H]3Cl [Alclometasone dipropionate], which CC50 at 24 h is on record?
A: > 20 µM

Q: With c1ccc2c(c1)cc1ccc3cccc4ccc2c1c34 [Benzo(a)pyrene] as the compound, how does the CC50 at 24 h read?
A: > 90 µM

Q: For CC1(C)[C@@H](O[C@H]2O[C@H](C(=O)O)[C@@H](O)[C@H](O)[C@H]2O[C@@H]2O[C@H](C(=O)O)[C@@H](O)[C@H](O)[C@H]2O)CC[C@]2(C)[C@H]3C(=O)C=C4[C@@H]5C[C@@](C)(C(=O)O)CC[C@]5(C)CC[C@@]4(C)[C@]3(C)CC[C@@H]12 [Ammonium glycyrrhizinate trihydrate], which CC50 at 24 h is on record?
A: > 70 µM

Q: For CN(C)CCCN(C)C [N,N,N',N'-Tetramethyl-1,3-propanediamine], which CC50 at 24 h is on record?
A: > 5 µM

Q: For CCCCC(CC)COCCC#N (centres unmarked) [3-((2-Ethylhexyl)oxy)propionitrile], which CC50 at 24 h is on record?
A: > 90 µM

Q: For CCCCCCCCCCCCCCCCCC(=O)OCCO [2-Hydroxyethyl octadecanoate], which CC50 at 24 h is on record?
A: > 50 µM

Q: With O=P(O)(O)Oc1ccccc1 [Phenyl dihydrogen phosphate] as the compound, how does the CC50 at 24 h read?
A: > 90 µM

Q: For COc1ccc2cc1Oc1cc3c(cc1OC)CC[N+](C)(C)[C@H]3Cc1ccc(cc1)Oc1c(OC)c(OC)cc3c1[C@@H](C2)[N+](C)(C)CC3 [Metocurine iodide], which CC50 at 24 h is on record?
A: > 50 µM

Q: For C[C@@H]1C(=O)NC2=Nc3cccc(Cl)c3CN21 [Quazinone], which CC50 at 24 h is on record?
A: > 50 µM

Q: With N=C(N)NCc1cccc(I)c1 [3-Iodobenzylguanidine hemisulfate] as the compound, how does the CC50 at 24 h read?
A: > 50 µM

Q: Which CC50 at 24 h does the source give for O=C(O)c1ccc2cc(C(=O)O)ccc2c1 [2,6-Naphthalenedicarboxylic acid] here?
A: > 90 µM

Q: With Nc1nccs1 [2-Aminothiazole] as the compound, how does the CC50 at 24 h read?
A: > 90 µM

Q: For Cc1ccccc1OCC(O)CO (centres unmarked) [Mephenesin], which CC50 at 24 h is on record?
A: > 50 µM

Q: With O=Cc1cccc([N+](=O)[O-])c1 [3-Nitrobenzaldehyde] as the compound, how does the CC50 at 24 h read?
A: > 90 µM

Q: With CC(C)(C)C(=O)CC(=O)C(C)(C)C [Dipivaloylmethane] as the compound, how does the CC50 at 24 h read?
A: > 100 µM

Q: For CCCCC(=O)N(Cc1ccc(-c2ccccc2-c2nnn[nH]2)cc1)[C@H](C(=O)O)C(C)C [Valsartan], which CC50 at 24 h is on record?
A: > 50 µM

Q: With CCCCCCCC[P+](CCCCCCCC)(CCCCCCCC)CCCCCCCC [Tetraoctylphosphonium bromide] as the compound, how does the CC50 at 24 h read?
A: 4.22 µM

Q: Which CC50 at 24 h does the source give for c1ccc(COCc2ccccc2)cc1 [Dibenzyl ether] here?
A: > 100 µM

Q: With O=C(O)c1ccc2cc(O)ccc2c1 [6-Hydroxy-2-naphthoic acid] as the compound, how does the CC50 at 24 h read?
A: > 90 µM

Q: With CC(C)(CO)[C@@H](O)C(=O)NCCC(=O)O [Calcium pantothenate] as the compound, how does the CC50 at 24 h read?
A: > 50 µM

Q: For CCCOC(=O)c1ccc(N)cc1 [Risocaine], which CC50 at 24 h is on record?
A: > 50 µM

Q: Which CC50 at 24 h does the source give for O=C(N[C@@H]1N=C(c2ccccc2F)c2cccc3c2N(CC3)C1=O)c1cc2ccccc2[nH]1 [N-[(3R)-1-(2-Fluorophenyl)-4-oxo-3,4,6,7-tetrahydro[1,4]diazepino[6,7,1-hi]indol-3-yl]-1H-indole-2-carboxamide] here?
A: > 50 µM

Q: With O=[N+]([O-])C1(Br)COCOC1 [5-Bromo-5-nitro-1,3-dioxane] as the compound, how does the CC50 at 24 h read?
A: 11.8 µM

Q: For Cn1cnc2c(O)nc(N)nc21 [9-Methylguanine], which CC50 at 24 h is on record?
A: > 90 µM

Q: For CCCCOC(CC)OC(C)COC(O)CC (centres unmarked) [Tripropylene glycol butyl ether], which CC50 at 24 h is on record?
A: > 90 µM

Q: For CCOC(=O)C(C)Oc1ccc(Oc2cnc3cc(Cl)ccc3n2)cc1 (centres unmarked) [Quizalofop-ethyl], which CC50 at 24 h is on record?
A: > 90 µM

Q: For CCCCC#N [Valeronitrile], which CC50 at 24 h is on record?
A: > 90 µM

Q: For C[Si](C)(C)O[Si](C)(C)O[Si](C)(C)C [Octamethyltrisiloxane], which CC50 at 24 h is on record?
A: > 90 µM

Q: With NCC(=O)O [Glycine] as the compound, how does the CC50 at 24 h read?
A: > 50 µM

Q: Which CC50 at 24 h does the source give for NCCN1CCNCC1 [1-(2-Aminoethyl)piperazine] here?
A: > 90 µM

Q: With CCC(CC)CO [2-Ethyl-1-butanol] as the compound, how does the CC50 at 24 h read?
A: > 90 µM

Q: With CCc1ccccc1N [2-Ethylaniline] as the compound, how does the CC50 at 24 h read?
A: > 90 µM

Q: Which CC50 at 24 h does the source give for CNCc1cc(F)ccc1Oc1ccc(Cl)c(Cl)c1 [CP-607366] here?
A: 77.7 µM

Q: With CC1=C2[C@@H]([C@H](C)CC[C@H]2/C=C(\C)C(=O)O)[C@H](O)C1 [Hydroxyvalerenic acid] as the compound, how does the CC50 at 24 h read?
A: > 90 µM

Q: Which CC50 at 24 h does the source give for C[Si](C)(CCCN)O[Si](C)(C)CCCN [3,3'-(1,1,3,3-Tetramethyldisiloxane-1,3-diyl)dipropan-1-amine] here?
A: > 90 µM

Q: Which CC50 at 24 h does the source give for O=C1OC(=O)c2c(Br)c(Br)c(Br)c(Br)c21 [Tetrabromophthalic anhydride] here?
A: > 90 µM

Q: Which CC50 at 24 h does the source give for CCC(COC(=O)CCS)(COC(=O)CCS)COC(=O)CCS [2,2-Bis{[(3-sulfanylpropanoyl)oxy]methyl}butyl 3-sulfanylpropanoate] here?
A: > 90 µM

Q: Which CC50 at 24 h does the source give for COc1cccc(OC)c1C(=O)O [2,6-Dimethoxybenzoic acid] here?
A: > 90 µM

Q: With CC(C)NCC(O)c1ccccc1Cl (centres unmarked) [Clorprenaline hydrochloride] as the compound, how does the CC50 at 24 h read?
A: > 50 µM

Q: Which CC50 at 24 h does the source give for Cc1ncc([N+](=O)[O-])n1CCO [Metronidazole] here?
A: > 50 µM

Q: Which CC50 at 24 h does the source give for C[C@]12O[C@H](C[C@]1(O)CO)n1c3ccccc3c3c4c(c5c6ccccc6n2c5c31)CNC4=O [Lestaurtinib] here?
A: 0.226 µM

Q: Which CC50 at 24 h does the source give for NC(=S)N/N=C/c1cccnc1 [Nicothiazone] here?
A: > 50 µM

Q: For CN(C)CCCN1c2ccccc2CCc2ccc(Cl)cc21 [Clomipramine hydrochloride], which CC50 at 24 h is on record?
A: 7.67 µM

Q: With Cc1cnc(C)c(C)n1 [2,3,5-Trimethylpyrazine] as the compound, how does the CC50 at 24 h read?
A: > 100 µM

same assay, conditions: rat, gh3-tre-luc cells, AC50 (uM) modified / 1000, Tox21_110001=Tox21_110809; viability, 1 nM T3 present, 24 h

Q: With CC[C@@H](CO)NC(=O)[C@@H]1C=C2c3cccc4[nH]cc(c34)C[C@H]2N(C)C1 [Methergine] as the compound, how does the CC50 at 24 h read?
A: > 50 µM

same assay, conditions: rat, gh3-tre-luc cells, AC50 (uM) modified / 1000, Tox21_110001=Tox21_111470; viability, 1 nM T3 present, 24 h

Q: For NC(=O)C[S+]([O-])C(c1ccccc1)c1ccccc1 (centres unmarked) [Modafinil], which CC50 at 24 h is on record?
A: > 50 µM

same assay, conditions: rat, gh3-tre-luc cells, AC50 (uM) modified / 1000, Tox21_110001=Tox21_113339; viability, 1 nM T3 present, 24 h

Q: With CCCCC1C(=O)NC(=O)N(C2CCCCC2)C1=O (centres unmarked) [Bucolome] as the compound, how does the CC50 at 24 h read?
A: > 50 µM

same assay, conditions: rat, gh3-tre-luc cells, AC50 (uM) modified / 1000, Tox21_110001=Tox21_200050; viability, 1 nM T3 present, 24 h

Q: With NC(=O)C(Cl)Cl [2,2-Dichloroacetamide] as the compound, how does the CC50 at 24 h read?
A: > 90 µM

same assay, conditions: rat, gh3-tre-luc cells, AC50 (uM) modified / 1000, Tox21_110001=Tox21_200094; viability, 1 nM T3 present, 24 h

Q: For C#CC(C)(C)O [2-Methyl-3-butyn-2-ol], which CC50 at 24 h is on record?
A: > 90 µM

same assay, conditions: rat, gh3-tre-luc cells, AC50 (uM) modified / 1000, Tox21_110001=Tox21_200356; viability, 1 nM T3 present, 24 h

Q: Which CC50 at 24 h does the source give for CC(C)Br [2-Bromopropane] here?
A: > 90 µM

same assay, conditions: rat, gh3-tre-luc cells, AC50 (uM) modified / 1000, Tox21_110001=Tox21_200709; viability, 1 nM T3 present, 24 h

Q: With OCC(Br)CBr (centres unmarked) [2,3-Dibromopropanol] as the compound, how does the CC50 at 24 h read?
A: > 90 µM

same assay, conditions: rat, gh3-tre-luc cells, AC50 (uM) modified / 1000, Tox21_110001=Tox21_200778; viability, 1 nM T3 present, 24 h

Q: Which CC50 at 24 h does the source give for O=C(Cl)C(Cl)Cl [Dichloroacetyl chloride] here?
A: > 90 µM

same assay, conditions: rat, gh3-tre-luc cells, AC50 (uM) modified / 1000, Tox21_110001=Tox21_202132; viability, 1 nM T3 present, 24 h

Q: Which CC50 at 24 h does the source give for O=NN1CCOCC1 [N-Nitrosomorpholine] here?
A: > 100 µM

same assay, conditions: rat, gh3-tre-luc cells, AC50 (uM) modified / 1000, Tox21_110001=Tox21_202175; viability, 1 nM T3 present, 24 h

Q: For Nc1ccccc1C(=O)OCCc1ccccc1 [Phenethyl anthranilate], which CC50 at 24 h is on record?
A: > 90 µM

same assay, conditions: rat, gh3-tre-luc cells, AC50 (uM) modified / 1000, Tox21_110001=Tox21_202470; viability, 1 nM T3 present, 24 h

Q: With Clc1cc(Cl)c(-c2cc(Cl)c(Cl)cc2Cl)cc1Cl [2,2',4,4',5,5'-Hexachlorobiphenyl] as the compound, how does the CC50 at 24 h read?
A: > 40 µM

same assay, conditions: rat, gh3-tre-luc cells, AC50 (uM) modified / 1000, Tox21_110001=Tox21_202584; viability, 1 nM T3 present, 24 h

Q: With Nc1ccc(-c2ccc(N)cc2)cc1 [Benzidine dihydrochloride] as the compound, how does the CC50 at 24 h read?
A: > 50 µM

same assay, conditions: rat, gh3-tre-luc cells, AC50 (uM) modified / 1000, Tox21_110001=Tox21_202725; viability, 1 nM T3 present, 24 h

Q: Which CC50 at 24 h does the source give for CN1[C@@H]2CC[C@H]1CC(O)C2 (some centres unmarked) [Tropine] here?
A: > 100 µM

same assay, conditions: rat, gh3-tre-luc cells, AC50 (uM) modified / 1000, Tox21_110001=Tox21_300544; viability, 1 nM T3 present, 24 h

Q: Which CC50 at 24 h does the source give for O=S(=O)(O)C(F)(F)C(F)(F)C(F)(F)C(F)(F)C(F)(F)C(F)(F)C(F)(F)C(F)(F)F [Potassium perfluorooctanesulfonate] here?
A: 49.4 µM

same assay, conditions: rat, gh3-tre-luc cells, AC50 (uM) modified / 1000, Tox21_110001=Tox21_300700; viability, 1 nM T3 present, 24 h

Q: Which CC50 at 24 h does the source give for COP(=S)(OC)Oc1nc(Cl)c(Cl)cc1Cl [Chlorpyrifos-methyl] here?
A: > 90 µM

same assay, conditions: rat, gh3-tre-luc cells, AC50 (uM) modified / 1000, Tox21_110001=Tox21_300994; viability, 1 nM T3 present, 24 h

Q: For CCOC(=O)C(Cl)Cc1cc(-n2nc(C)n(C(F)F)c2=O)c(F)cc1Cl (centres unmarked) [Carfentrazone-ethyl], which CC50 at 24 h is on record?
A: > 90 µM

same assay, conditions: rat, gh3-tre-luc cells, AC50 (uM) modified / 1000, Tox21_110001=Tox21_302867; viability, 1 nM T3 present, 24 h

Q: For O=NN1CCOCC1 [N-Nitrosomorpholine], which CC50 at 24 h is on record?
A: > 90 µM
